In data set [1] the test system is anaesthetized rats with myocardial infarctions. In words: Haemodynamics in anaesthetized MI and sham rats. Type of data set: in vivo. As to conditions: for free plasma concentration: 417 μg·kg^−1·min^−1; for maximal positive inotropic effect (LV + dP/dt max): i.v. infusion 417 μg·kg^−1·min^−1. The source says:
Male Sprague–Dawley rats (Harlan, Netherlands B.V.) were housed in polycarbonate cages (Makrolon IV with stainless steel wire mesh lids). A maximum of five rats were housed per cage with aspen chip bedding (Tapvei Ky, Kaavi, Finland). Rats had free access to water (twice filtered, Espoon Vesi) and a rodent diet (SDS RM1 (P) SQC pelleted diet, Special Diet Services Ltd, Witham, England). The acclimation period before experiments was at least 5 days. In the MI model, rats (7–8 weeks, 200–250 g) were randomized into either the MI or sham group. In this weight range, a rat is considered a young adult, when its evolution phase is characterized by slow growth and its surgical mortality is lower than that of older animals. Male rats were used to minimize the variability of the cardiac response to several stimuli (Zornoff, Paiva, Minicucci, & Spadaro, 2009).
Rats were anaesthetized with a combination of ketamine (Ketalar® 50 mg·kg−1, i.p.) and medetomidine (Domitor 250 μg·kg^−1, i.p.), intubated, and artificially ventilated with air (Ugo Basile 7025). An MI was induced by the occlusion of the left coronary artery under aseptic conditions (Levijoki, Pollesello, Kaheinen, & Haikala, 2001; Selye, Bajusz, Grasso, & Mendell, 1960). The left coronary artery was ligated at a distance of about 2–3 mm from the origin of the aorta with a silk suture, and the heart was repositioned into the chest. After ligation, the wound was closed carefully. The muscle layer was closed with soluble stitches and skin layers with insoluble stitches, followed by a partial reversal of anaesthesia via the […] administration of atipamezole (Antisedan® 0.3–1 mg·kg^−1, i.m.). The trachea tube was removed, and the trachea and underlying muscle and skin layers were closed immediately. To prevent dehydration, rats were subcutaneously administered with 5 ml of 0.9% NaCl. After surgery, rats were given analgesia with buprenorphine for at least 2 days (0.05 mg·kg^−1, s.c. twice a day). For sham‐operated rats, the same procedure was performed, without ligation. Rats were analysed for 7 days after the MI, for signs of severe acute heart failure such as oedema or breathing difficulties.
All animals were given multiple ascending infusion doses of ORM‐11372; blinding was not possible. Systemic BP (SP) and left ventricular pressure (LVP) values were measured with pressure transducers (SP for femoral artery: Isotec, Hugo Sachs Elektronic, Germany; a miniature pressure transducer Mikro‐Tip transducer SPR‐249, Millar Instruments was inserted into the left ventricle via the right carotid artery). The signal was amplified (DC‐bridge amplifier type 660, Hugo Sachs Elektronik, Germany), digitized (I/O connector block type SCB‐68, National Instruments, USA), recorded, and analysed (IHME 1.0.9, Fision Ltd, Finland). Left ventricular inotropic effect (LV + dP/dt max), relaxation (LV − dP/dt min), and HR values were analysed from LVP signals.
Haemodynamics were assessed 7 days after the MI (n = 6) or sham operation (n = 6) as follows. Rats were anaesthetized with isoflurane (2.25–2.5%, Baxter) in carbogen (95% O2 and 5% CO2) and nitrous oxide (1:1), using a small rodent ventilator (Ugo Basile 7025, ~10 ml·kg^−1, 60 strokes·min^−1). The rats were infused with 0.9% NaCl in the […] at the stabilization and baseline levels. ORM‐11372 was administered into MI (n = 6) and sham (n = 6) rats in ascending infusion doses of 1.7, 17, 167, and 417 μg·kg^−1·min^−1. Infusions were administered into the jugular vein of MI rats at the infusion rate of 5 ml·kg^−1·h^−1 (Terumo TE‐311, Belgium). Doses were selected based on a pilot study with healthy rats (Figure S20). The total number of animals in the study was 12 + 2, due to the replacement of two MI rats. […]

The next data set deals with 5‐HT2A receptor (Homo sapiens, UniProt P28223). In words: Radioligand binding selectivity panel (Eurofins Cerep). The settings on record: read-out: inhibition of specific ligand binding. The method, then: (§1) Radioligand binding assays were performed at Eurofins Cerep SA (Celle L'Evescault, France), for testing the inhibition capacity of ORM‐11372 (at 10 μM with two replicates), in over 75 targets. These included receptors (e.g., human A1, A2A, and A3 adenosine receptors; α1 and α2 adrenoceptors; human β1–β3 adrenergic receptors; human D1, D2S, D3, D4.4, and D5 dopamine receptors; EGF and VEGF receptors; human M1–M5 muscarinic ACh receptors; human 5‐HT1A, 5‐HT2A, 5‐HT2B, 5‐HT2C, 5‐HT4e, 5‐HT5A, 5‐HT6, and 5‐HT7 receptors), ion channels (5‐HT3, Ca^2+, ATP‐dependent potassium channel [KATP], voltage‐dependent potassium channel [KV], small‐conductance calcium‐dependent potassium channel [SKCa], Na^+, and Cl^−), and transporters (adenosine, noradrenaline, dopamine, and 5‐HT). Follow‐up functional studies (with five concentrations and two replicates) were performed for 5‐HT2A receptors and noradrenaline transporter. Agonism and antagonism at h5‐HT2A receptors was explored in recombinant HEK 293 cells and intracellular calcium changes were detected using fluorimetry. Noradrenaline uptake was measured by carrying out scintillation counting of [^3H]noradrenaline incorporated into rat hypothalamus synaptosomes.

A further data set deals with 5‐HT2B receptor (Homo sapiens, UniProt P41595). The description is as above. The settings on record: read-out: inhibition of specific ligand binding. The method, then:
as §1

The subject of a further data set is ryanodine receptor. Described as above. The settings on record: 10 μM. On the procedure:
as §1

Another data set deals with Na^+/K^+‐ATPase. The description is as above. The settings on record: 10 μM. The method, then: as §1
Data set [2] has as its target noradrenaline transporter (Homo sapiens, UniProt P23975). The data set is described as above. The settings on record: read-out: inhibition of specific ligand binding. The method, then:
as §1

Data set [3] has as its target peripheral benzodiazepine receptor (Rattus norvegicus, UniProt P16257). The data set is described as above. As to conditions: read-out: inhibition of specific ligand binding. The method, then: as §1

This is an account of results in PMC7707092, “Discovery and characterization of ORM‐11372, a novel inhibitor of the sodium‐calcium exchanger with positive inotropic activity” (British Journal of Pharmacology, 2020).

Bounds are passed on as bounds.

5‐HT2A receptor, sequence (P28223 whole entry): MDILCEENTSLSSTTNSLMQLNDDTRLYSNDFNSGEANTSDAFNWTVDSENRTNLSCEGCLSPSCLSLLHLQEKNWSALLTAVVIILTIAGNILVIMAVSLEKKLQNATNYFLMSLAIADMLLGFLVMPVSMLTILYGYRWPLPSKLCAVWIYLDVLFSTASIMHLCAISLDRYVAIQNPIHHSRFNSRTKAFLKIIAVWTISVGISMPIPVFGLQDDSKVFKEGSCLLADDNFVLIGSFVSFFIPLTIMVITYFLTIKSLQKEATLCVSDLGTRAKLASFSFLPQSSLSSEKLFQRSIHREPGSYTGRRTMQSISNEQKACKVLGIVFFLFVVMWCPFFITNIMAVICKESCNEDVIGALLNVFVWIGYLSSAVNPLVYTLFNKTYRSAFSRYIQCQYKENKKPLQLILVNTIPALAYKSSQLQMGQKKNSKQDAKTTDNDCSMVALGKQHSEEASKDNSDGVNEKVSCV
noradrenaline transporter, sequence (P23975 whole entry): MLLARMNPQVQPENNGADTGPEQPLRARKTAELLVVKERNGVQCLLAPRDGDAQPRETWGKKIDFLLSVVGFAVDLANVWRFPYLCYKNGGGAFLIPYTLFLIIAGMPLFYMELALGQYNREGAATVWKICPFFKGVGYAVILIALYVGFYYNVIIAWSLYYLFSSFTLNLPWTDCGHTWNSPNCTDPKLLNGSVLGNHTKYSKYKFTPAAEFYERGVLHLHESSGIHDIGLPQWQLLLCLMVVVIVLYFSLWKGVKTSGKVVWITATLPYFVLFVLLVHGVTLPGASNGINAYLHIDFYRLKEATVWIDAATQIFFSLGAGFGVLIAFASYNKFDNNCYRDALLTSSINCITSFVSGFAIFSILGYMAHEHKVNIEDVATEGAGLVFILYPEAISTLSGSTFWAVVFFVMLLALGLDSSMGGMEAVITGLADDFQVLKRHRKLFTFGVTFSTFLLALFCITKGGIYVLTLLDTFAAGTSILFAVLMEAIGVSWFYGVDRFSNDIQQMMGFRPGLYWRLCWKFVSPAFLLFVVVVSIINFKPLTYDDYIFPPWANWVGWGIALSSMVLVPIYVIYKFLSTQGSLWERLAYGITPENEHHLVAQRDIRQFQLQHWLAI
5‐HT2B receptor, sequence (P41595 whole entry): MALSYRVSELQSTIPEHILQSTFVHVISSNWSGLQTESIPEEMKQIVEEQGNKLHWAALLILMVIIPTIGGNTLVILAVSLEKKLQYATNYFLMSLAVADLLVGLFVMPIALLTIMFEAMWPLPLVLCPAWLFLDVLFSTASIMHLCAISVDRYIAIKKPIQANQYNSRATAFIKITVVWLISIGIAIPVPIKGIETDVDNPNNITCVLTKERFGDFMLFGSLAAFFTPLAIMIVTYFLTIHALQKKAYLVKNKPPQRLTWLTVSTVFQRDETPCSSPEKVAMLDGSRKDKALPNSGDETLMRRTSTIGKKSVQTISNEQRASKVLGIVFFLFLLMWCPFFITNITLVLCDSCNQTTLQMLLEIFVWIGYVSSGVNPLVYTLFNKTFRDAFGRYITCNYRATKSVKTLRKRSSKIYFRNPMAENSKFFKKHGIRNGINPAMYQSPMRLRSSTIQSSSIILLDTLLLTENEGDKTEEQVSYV

In general, inhibition refers to the change of the read-out against control, counted positive when it falls. For `Nc1cccc(-c2ccc(CNc3ccc(F)cc3)o2)c1` [ORM‐11372], the improvement of relaxation in data set [1] (MI group, lowest infusion dose 1.7 μg·kg^−1·min^−1) turned out to be 24 ± 2%. Further, the “systemic arterial BP” value in data set [1] (MI or sham groups) is “no effect”. The figures for the free plasma concentration in data set [1] (MI rats) and in data set [1] (sham rats) were 6.7 ± 2.5 nM and 4.9 ± 0.4 nM, respectively. The “maximal positive inotropic effect (LV + dP/dt max)” value worked out at 18 ± 6% in data set [1] (MI rats) and 31 ± 6% in data set [1] (sham rats). Also, the inhibition at 10 µM (on 5‐HT2A receptor; on 5‐HT2B receptor; in data set [2]; in data set [3]) was over 50% in each case. Moreover, the “inhibition of specific ligand binding” value came to 15% with ryanodine receptor and 11% in the data set with Na^+/K^+‐ATPase.
